Series [1] is described as follows: Oral bioavailability of conjugates in female Beagle dogs (AUC of parent drug). The series is classed as in vivo. To be noted: for Δ AUC (increase of AUC of parent drug derived from conjugate compared to parent drug as such): female Beagle dogs, single oral dose 7.5 or 15 μmol/kg by gavage, 24 h sampling, Table 1a; for generation of parent drug after oral administration: oral administration to beagle dogs. The method, then:
Relative and absolute bioavailability may be determined in different animal models and according to different protocols. The following protocol is typical for determining bioavailability in female Beagle dogs and was used in the present invention. The animals were deprived from food over a time period of 8 h prior to administration of the compounds according to the present invention and over a time period of 2 h after administration of the compounds according to the present invention. Water was supplied without limitation. On the study day, the animals received the compounds according to the present invention, at a single dose of 7.5 or 15 μmol/kg, by oral gavage, formulated in mixtures of propylene glycol, ethanol and 0.9% NaCl+5% mannitol in water. Blood samples were collected from the jugular vein on the following time points: 0.25, 0.5, 1, 2, 4, 8 and 24 hours after dosing of the compounds according to the present invention. […] Pharmacokinetic parameters were calculated from concentration versus time data using non-compartmental pharmacokinetic methods using Phoenix pharmacokinetic software. Data are compared to the parent drugs to establish improvement of its oral bioavailability by the compounds according to the present invention.

The nature of series [2]: In vitro treatment of conjugates with glutathione, release of parent drug followed by LC-MS at 254 nm. The series is classed as in vitro ADME. To be noted: for fate of glutathione adduct formed during glutathione treatment: adduct formed in situ from the conjugate; for formation of parent drug on in vitro treatment with glutathione: glutathione 5 eq., phosphate buffer pH=7.6, 37° C. (for 102). The text has this: FIGS. 1A and 1B are graphs showing the release of the drug Cinacalcet after an in vitro treatment of Cinacalcet conjugate 102 (not according to the invention) with glutathione. […] FIG. 1B represent the concentration of Cinacalcet conjugate 102 and Cinacalcet versus time. The presence of the compounds was followed at 254 nm by LC-MS.
FIGS. 3A and 3B are graphs showing the release of the drug Cinacalcet after an in vitro treatment of Cinacalcet conjugate 60 (according to the invention) with glutathione. […] FIG. 3B represent the concentration of Cinacalcet conjugate 60 and Cinacalcet versus time. The presence of the compounds was followed at 254 nm by LC-MS.
The results are shown in FIGS. 1A and B. In FIG. 1A is shown the disappearance of conjugate 102 over time after treatment with glutathione, the formation of Cinacalcet and the appearance and partial disappearance of an intermediate (HS-Et-Cinacalcet) and a glutathione adduct (GSS—Et-Cinacalcet)—see below.

Each structure is given as a SMILES string.

As for `CCCN(COCCSSCOC(=O)N(CCCc1cccc(C(F)(F)F)c1)[C@H](C)c1cccc2ccccc12)C(=O)O[C@@H]1O[C@H](CO)[C@@H](O)[C@H](O)[C@H]1O` [Compound 92a], the “Δ AUC (increase of AUC of parent drug derived from conjugate compared to parent drug as such)” value in series [1] is listed as “+++ (+++ denotes a >4-fold increase of the AUC compared to the parent drug)”.
Same read-out and setting: as for `CCCN(COCCSSCOC(=O)N(CCCc1cccc(C(F)(F)F)c1)[C@H](C)c1cccc2ccccc12)C(=O)O[C@@H]1O[C@H](CO)[C@H](O)[C@H](O)[C@H]1O` [Compound 93a], the entry is “+++ (+++ denotes a >4-fold increase of the AUC compared to the parent drug)”.
In the case of `C[C@H](c1cccc2ccccc12)N(CCCc1cccc(C(F)(F)F)c1)C(=O)OCCSSC[C@H](NC(=O)CC[C@H](N)C(=O)O)C(=O)NCC(=O)O` [GSS-Et-Cinacalcet], the “fate of glutathione adduct formed during glutathione treatment” value in series [2] is on record as “somewhat more stable than the mercaptoethyl carbamate”.
On the same count and under the same terms, as for `C[C@H](c1cccc2ccccc12)N(CCCc1cccc(C(F)(F)F)c1)C(=O)OCSSC[C@H](NC(=O)CC[C@H](N)C(=O)O)C(=O)NCC(=O)O` [GSS-Me-Cinacalcet], the entry is “completely converted into Cinacalcet within one hour”.
With `C[C@H](c1cccc2ccccc12)N(CCCc1cccc(C(F)(F)F)c1)C(=O)OCSSCCNC(=O)O[C@@H]1O[C@H](CO)[C@@H](O)[C@H](O)[C@H]1O` [Compound 90], the “Δ AUC (increase of AUC of parent drug derived from conjugate compared to parent drug as such)” value in series [1] is listed as “+ (+ denotes a 1.1 to 2-fold increase of the AUC compared to parent drug)”.
For `CN(CC[C@@H](Oc1cccc2ccccc12)c1cccs1)C(=O)OCSSCCO[C@@H]1O[C@H](CO)[C@H](O)[C@H](O)[C@H]1O` [Compound 61], the “formation of parent drug on in vitro treatment with glutathione” value (“formation of parent drug” for short) in series [2] is “very fast and complete formation of Duloxetine”. In series [1], the “Δ AUC (increase of AUC of parent drug derived from conjugate compared to parent drug as such)” value is recorded as “++ (++ denotes a 2 to 4-fold increase of the AUC compared to the parent drug)” and the “generation of parent drug after oral administration” value (shortened to “generation of parent drug”) was “readily resulted in the generation of significant amounts of duloxetine”.
With `CN(CC[C@@H](Oc1cccc2ccccc12)c1cccs1)C(=O)OCCSSCCO[C@@H]1O[C@H](CO)[C@@H](O)[C@H](O)[C@H]1O` [Compound 103], the “formation of parent drug” value in series [2] is “very slow and incomplete formation of duloxetine”. Further, the “conversion of pro-drug into parent drug within 8 hours” value in series [2] (glutathione treatment) was “less than half”. Also, the “generation of parent drug” value in series [1] is on record as “did not produce any detectable amount of Duloxetine”.
Turning to `CCCN(COCCSSCOC(=O)N(CCCc1cccc(C(F)(F)F)c1)[C@H](C)c1cccc2ccccc12)C(=O)O[C@@H]1O[C@H](CF)[C@@H](O)[C@H](O)[C@H]1O` [Compound 92b], the “Δ AUC (increase of AUC of parent drug derived from conjugate compared to parent drug as such)” value in series [1] is listed as “+++ (+++ denotes a >4-fold increase of the AUC compared to the parent drug)”.
Take `CN(CC[C@H](Oc1cccc2ccccc12)c1cccs1)C(=O)OCSSC[C@H](NC(=O)CC[C@H](N)C(=O)O)C(=O)NCC(=O)O` [GSS-Me-Duloxetine]: the “fate of glutathione adduct formed during glutathione treatment” value in series [2] is “completely converted into Duloxetine within one hour”.
Take `C[C@H](c1cccc2ccccc12)N(CCCc1cccc(C(F)(F)F)c1)C(=O)OCCSSCCO[C@@H]1O[C@H](CO)[C@@H](O)[C@H](O)[C@H]1O` [Compound 102]: in series [2], the “formation of parent drug” value was “very slow and incomplete formation of Cinacalcet”. In addition, the “conversion of pro-drug into parent drug within 8 hours” value in series [2] (glutathione treatment) is reported as “far from being completely converted into Cinacalcet”. For the same compound, the “conversion of pro-drug into parent drug in 23 hours” value in series [2] (glutathione treatment, 23 hours) is “less than half”. Moreover, the “generation of parent drug” value in series [1] is on record as “did not produce any detectable amount of the drug Cinacalcet”.
As to `C[C@H](c1cccc2ccccc12)N(CCCc1cccc(C(F)(F)F)c1)C(=O)OCSSCCO[C@@H]1O[C@H](CO)[C@@H](O)[C@H](O)[C@H]1O` [Compound 60], the “formation of parent drug” value in series [2] is “very fast and complete formation of Cinacalcet”. Moreover, in series [1], the “Δ AUC (increase of AUC of parent drug derived from conjugate compared to parent drug as such)” value is recorded as “++ (++ denotes a 2 to 4-fold increase of the AUC compared to the parent drug)” and the “generation of parent drug” value is “readily resulted in the generation of significant amounts of cinacalcet”.

The values are drawn from patent US20240299554A1, “PRODRUGS WITH 1-(DISULFANYL)ALKYLOXY-CARBONYL UNITS” (PHARMACYTICS B.V., priority 2021, published 2024).
